Data: DBAASP
In brackets after ≈: the same amount, converted by molar mass. Blank lines part the entries; values can stand above or below the compound they belong to.

Legend:
Experiment in all cases: ≥ marks a high value that may be exact or a test limit, other limits are often not marked, values filed in µg/mL are converted to µM
[1] = system: Staphylococcus aureus VRSA2
[2] = system: Staphylococcus aureus VISA1
[3] = system: Staphylococcus aureus VRSA1
[4] = system: Escherichia coli ATCC 25922
[5] = system: Enterococcus faecium BCRC 15B0132
[6] = system: Staphylococcus aureus VISA3
Klebsiella aerogenes = system: Klebsiella aerogenes
Salmonella enterica = system: Salmonella enterica
Proteus mirabilis = system: Proteus mirabilis
Pseudomonas aeruginosa = system: Pseudomonas aeruginosa
[7] = system: Staphylococcus saprophyticus
Serratia marcescens = system: Serratia marcescens
Staphylococcus aureus = system: Staphylococcus aureus
[8] = system: Escherichia coli ATCC 35218
[9] = system: Staphylococcus haemolyticus
Acinetobacter baumannii = system: Acinetobacter baumannii
Klebsiella oxytoca = system: Klebsiella oxytoca
[10] = system: Staphylococcus epidermidis
Enterobacter cloacae = system: Enterobacter cloacae
Klebsiella pneumoniae = system: Klebsiella pneumoniae
[11] = system: Staphylococcus xylosus DSM 20287
[12] = system: Escherichia coli DSM 1116
[13] = system: Bacillus subtilis DSM 347
[14] = system: Franconibacter helveticus DSM 18390
[15] = system: Staphylococcus aureus ATCC 29213
[16] = system: Salmonella enterica subsp. enterica serovar Pullorum C79-13
Escherichia coli UB1005 = system: Escherichia coli UB1005
Escherichia coli K88 = system: Escherichia coli K88
Escherichia coli K99 = system: Escherichia coli K99
[17] = system: Bacillus subtilis CMCC 63501
[18] = system: Pseudomonas aeruginosa 25349
[19] = system: Salmonella enterica subsp. enterica serovar Typhimurium C77-31
[20] = system: Staphylococcus epidermidis ATCC 12228
Escherichia coli 078 = system: Escherichia coli 078
[21] = system: Salmonella enterica subsp. enterica serovar Typhimurium ATCC 14028
[22] = system: Staphylococcus aureus ATCC 25923
Escherichia coli = system: Escherichia coli
[23] = system: Enterococcus faecalis ATCC 29212
[24] = system: Klebsiella pneumoniae E406-17
[25] = system: Staphylococcus aureus MU50
Escherichia coli E423-17 = system: Escherichia coli E423-17
[26] = system: Staphylococcus aureus USA 200
[27] = system: Enterococcus faecium V286-17
[28] = system: Acinetobacter baumannii B28-16
[29] = system: Staphylococcus aureus UAMS-1
[30] = system: Staphylococcus aureus Newman
[31] = system: Pseudomonas aeruginosa E411-17
[32] = system: Staphylococcus aureus USA 400
[33] = system: Staphylococcus aureus USA 300
[34] = system: Staphylococcus aureus M838-17
[35] = system: Candida parapsilosis ATCC 22019
[36] = system: Candida albicans ATCC 24433
[37] = system: Trichophyton rubrum ATCC 28189

Compound: CC[C@H](C)[C@H](N)C(=O)N[C@@H](C)C(=O)N[C@@H](CCCCN)C(=O)N[C@H](C(=O)N[C@@H](C)C(=O)NCC(=O)N[C@@H](CCCCN)C(=O)N[C@H](C(=O)N[C@@H](C)C(=O)N[C@@H](CCCCN)C(=O)N[C@H](C(=O)N[C@@H](C)C(=O)NCC(=O)N[C@@H](CCCCN)C(=O)N[C@H](C(=O)N[C@@H](C)C(=O)N[C@@H](CCCCN)C(=O)N[C@H](C(=O)N[C@@H](C)C(=O)NCC(=O)N[C@@H](CCCCN)C(=O)N[C@H](C(=O)N[C@@H](C)C(=O)N[C@@H](CCCCN)C(N)=O)[C@@H](C)CC)[C@@H](C)CC)[C@@H](C)CC)[C@@H](C)CC)[C@@H](C)CC)[C@@H](C)CC [IAKIAGKIAKIAGKIAKIAGKIAK]
MIC [11]: 0.842 µM (≈ 2 µg/mL)
MIC [12]: 1.68 µM (≈ 4 µg/mL)
MIC [13]: 0.842 µM (≈ 2 µg/mL)
MIC [14]: 1.19 µM (≈ 2.83 µg/mL)

Compound: CC(C)[C@H](NC(=O)[C@H](Cc1c[nH]c2ccccc12)NC(=O)[C@H](Cc1c[nH]c2ccccc12)NC(=O)[C@H](Cc1c[nH]c2ccccc12)NC(=O)[C@H](Cc1c[nH]c2ccccc12)NC(=O)[C@H](CCCN=C(N)N)NC(=O)[C@H](CCCN=C(N)N)NC(=O)[C@@H](N)CCCN=C(N)N)C(N)=O [RRRWWWWV]
MIC [24]: 11.3 µM (≈ 15 µg/mL)
MIC [25]: 8 µM (≈ 10.6 µg/mL)
MIC (Escherichia coli E423-17): 2 µM (≈ 2.66 µg/mL)
MIC (Staphylococcus aureus): 4 µM (≈ 5.32 µg/mL)
MIC [26]: 4 µM (≈ 5.32 µg/mL)
MIC [27]: 2 µM (≈ 2.66 µg/mL)
MIC [28]: 8 µM (≈ 10.6 µg/mL)
MIC [29]: 4 µM (≈ 5.32 µg/mL)
MIC [30]: 4 µM (≈ 5.32 µg/mL)
MIC [31]: 5.66 µM (≈ 7.52 µg/mL)
MIC [32]: 4 µM (≈ 5.32 µg/mL)
MIC [33]: 2.83 µM (≈ 3.76 µg/mL)
MIC [34]: 3.1 µM (≈ 4.12 µg/mL)
MIC (Klebsiella pneumoniae): 11.3 µM (≈ 15 µg/mL)

Compound: CC[C@H](C)[C@H](NC(=O)[C@H](CC(C)C)NC(=O)[C@H](CCC(=O)O)NC(=O)[C@H](CO)NC(=O)[C@H](CCCN=C(N)N)NC(=O)[C@@H](N)CO)C(=O)N[C@H](C(=O)N[C@@H](CCCN=C(N)N)C(=O)N[C@@H](CCC(N)=O)C(=O)N[C@@H](CCCN=C(N)N)C(=O)N[C@@H](CC(C)C)C(=O)N[C@@H](Cc1ccccc1)C(N)=O)C(C)C [SRSELIVRQRLF]
MIC [35]: ≥ 266 µM
MIC (Staphylococcus aureus): > 266 µM
MIC [36]: ≥ 266 µM
MIC [37]: ≥ 266 µM
MIC (Escherichia coli): > 266 µM

The next lines start with results.

MIC [1]: ≥ 40.1 µM
MIC [2]: ≥ 40.1 µM
MIC [3]: ≥ 40.1 µM
MIC [4]: 40.1 µM (≈ 65.6 µg/mL)
MIC [5]: ≥ 40.1 µM
MIC [6]: ≥ 40.1 µM
Compound: CC(=O)N[C@@H](C)C(=O)N[C@@H](CCCCN)C(=O)N[C@@H](CCCN=C(N)N)C(=O)N[C@@H](Cc1ccccc1)C(=O)N[C@@H](Cc1ccccc1)C(=O)NCC(=O)N[C@@H](Cc1ccc(O)cc1)C(=O)N[C@@H](CCCCN)C(=O)N[C@@H](CCCN=C(N)N)C(=O)N[C@@H](CCCCN)C(=O)N[C@@H](Cc1ccccc1)C(=O)N[C@@H](Cc1ccccc1)C(N)=O [AKRFFGYKRKFF]

MIC (Klebsiella aerogenes): 10 µM (≈ 23.9 µg/mL)
MIC (Salmonella enterica): 10 µM (≈ 23.9 µg/mL)
MIC (Proteus mirabilis): 10 µM (≈ 23.9 µg/mL)
MIC (Pseudomonas aeruginosa): 2.8 µM (≈ 6.69 µg/mL)
MIC [7]: 10 µM (≈ 23.9 µg/mL)
MIC (Serratia marcescens): 10 µM (≈ 23.9 µg/mL)
MIC (Staphylococcus aureus): 1.8 µM (≈ 4.3 µg/mL)
MIC [8]: 0.9 µM (≈ 2.15 µg/mL)
MIC (Acinetobacter baumannii): 10 µM (≈ 23.9 µg/mL)
MIC (Klebsiella oxytoca): 3.6 µM (≈ 8.6 µg/mL)
MIC [10]: 10 µM (≈ 23.9 µg/mL)
MIC (Enterobacter cloacae): 10 µM (≈ 23.9 µg/mL)
MIC (Klebsiella pneumoniae): 1.4 µM (≈ 3.34 µg/mL)
Compound: CC[C@H](C)[C@H](NC(=O)[C@H](CCCCN)NC(=O)[C@H](C)NC(=O)[C@H](CC(C)C)NC(=O)[C@H](Cc1ccccc1)NC(=O)[C@H](CCCN=C(N)N)NC(=O)[C@H](C)NC(=O)[C@H](Cc1ccc(O)cc1)NC(=O)[C@H](CCCN=C(N)N)NC(=O)[C@H](Cc1cnc[nH]1)NC(=O)[C@H](Cc1ccccc1)NC(=O)[C@H](Cc1ccc(O)cc1)NC(=O)[C@H](CCCN=C(N)N)NC(=O)[C@H](CCC(N)=O)NC(=O)[C@@H](N)Cc1ccccc1)C(=O)N[C@@H](Cc1c[nH]c2ccccc12)C(=O)N[C@@H](CCCCN)C(=O)NCC(=O)O [FQRYFHRYARFLAKIWKG]
MIC [9]: 10 µM (≈ 23.9 µg/mL)

MIC [15]: 4 µM (≈ 6.16 µg/mL)
MIC [16]: 1 µM (≈ 1.54 µg/mL)
MIC (Escherichia coli UB1005): 1 µM (≈ 1.54 µg/mL)
MIC (Escherichia coli K88): 1 µM (≈ 1.54 µg/mL)
MIC (Escherichia coli K99): 2 µM (≈ 3.08 µg/mL)
MIC (Staphylococcus aureus): 2 µM (≈ 3.08 µg/mL)
MIC (Acinetobacter baumannii): 2 µM (≈ 3.08 µg/mL)
MIC [17]: 1 µM (≈ 1.54 µg/mL)
MIC [18]: 4 µM (≈ 6.16 µg/mL)
MIC [19]: 4 µM (≈ 6.16 µg/mL)
MIC [4]: 2 µM (≈ 3.08 µg/mL)
MIC [20]: 4 µM (≈ 6.16 µg/mL)
MIC (Escherichia coli 078): 2 µM (≈ 3.08 µg/mL)
MIC [21]: 2 µM (≈ 3.08 µg/mL)
MIC [22]: 2 µM (≈ 3.08 µg/mL)
MIC (Escherichia coli): 2 µM (≈ 3.08 µg/mL)
MIC [23]: 4 µM (≈ 6.16 µg/mL)
Compound: CC[C@H](C)[C@H](NC(=O)[C@H](Cc1c[nH]c2ccccc12)NC(=O)[C@H](CCCCN)NC(=O)[C@H](CC(C)C)NC(=O)[C@@H](NC(=O)[C@H](CCCCN)NC(=O)CNC(=O)[C@@H](NC(=O)[C@H](CCCCN)NC(=O)[C@H](Cc1c[nH]c2ccccc12)NC(=O)[C@H](CC(C)C)NC(=O)[C@@H](N)CCCN=C(N)N)[C@@H](C)CC)C(C)C)C(N)=O [RLWKIGKVLKWI]
